Measured values published in patent US11618746B2, “Inhibitors of APOL1 and methods of using same” (Vertex Pharmaceuticals Incorporated, priority 2018, dated 2023).

target: T1, G1 APOL1 (Homo sapiens, UniProt O14791, I384M/S342G); assay: Acute APOL1 Thallium Assay with inducible stable clones of HEK 293 cells; type: cell-based; conditions: HEK T-Rex tetracycline-inducible cells expressing G1 APOL1 (clone G1 DC3.25); inhibition of thallium flux rate
T1 construct: expressed in transfected cells
T1 sequence (O14791 28-398 S342G/I384M): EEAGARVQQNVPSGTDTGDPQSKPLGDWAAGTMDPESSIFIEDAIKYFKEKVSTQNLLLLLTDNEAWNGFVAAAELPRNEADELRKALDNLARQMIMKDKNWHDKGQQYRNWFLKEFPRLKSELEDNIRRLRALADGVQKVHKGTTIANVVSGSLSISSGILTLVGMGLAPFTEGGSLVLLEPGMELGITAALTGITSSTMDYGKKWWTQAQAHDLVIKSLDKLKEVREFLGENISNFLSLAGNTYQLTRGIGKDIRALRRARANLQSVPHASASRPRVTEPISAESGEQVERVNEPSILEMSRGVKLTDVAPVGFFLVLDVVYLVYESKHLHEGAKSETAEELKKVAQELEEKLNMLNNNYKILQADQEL
How it was run: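 HEK293 T-Rex cells with tetracycline-inducible G1 APOL1 (clone DC3.25), 26000 cells per well, induced with tetracycline at plating and incubated at 37° C, 5% CO2. Pore activity read on FLIPR as Tl+ influx via fluorescence of AM-ester-loaded thallium-sensitive dye.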

`O=C(CCc1c(-c2ccc(F)cc2)[nH]c2ccccc12)N[C@@H]1C(=O)NC[C@H]1O` [Compound 87, 3-[2-(4-fluorophenyl)-1H-indol-3-yl]-N-[(3S,4R)-4-hydroxy-2-oxo-pyrrolidin-3-yl]propanamide] and `Cc1ccc(-c2[nH]c3ccccc3c2CCC(=O)N[C@@H]2C(=O)NC[C@H]2O)cc1` [Compound 124] cannot be ordered by IC50: less than 250 nM for the first, less than 250 nM for the second.

`O=C1NC[C@@H](O)[C@@H]1NC(=O)C(F)(F)Cc1c(-c2ccc(F)cc2)[nH]c2c(F)cc(F)cc12` [Compound 95, 3-[5,7-difluoro-2-(4-fluorophenyl)-1H-indol-3-yl]-2,2-difluoro-N-[(3S,4R)-4-hydroxy-2-oxo-pyrrolidin-3-yl]propanamide] and `O=C(CCc1c(-c2ccc(F)cc2)[nH]c2c(F)cc(C(F)(F)F)cc12)N[C@@H]1C(=O)NC[C@H]1O` [Compound 101, 3-[7-fluoro-2-(4-fluorophenyl)-5-(trifluoromethyl)-1H-indol-3-yl]-N-[(3S,4R)-4-hydroxy-2-oxo-pyrrolidin-3-yl]propanamide] cannot be ordered by IC50: less than 250 nM for the first, less than 250 nM for the second.

`Cc1c(F)c(F)cc2c(CCC(=O)N[C@@H]3C(=O)NC[C@H]3O)c(-c3ccc(F)cc3)[nH]c12` [Compound 98, 3-[5,6-difluoro-2-(4-fluorophenyl)-7-methyl-1H-indol-3-yl]-N-[(3S,4R)-4-hydroxy-2-oxo-pyrrolidin-3-yl]propanamide] and `Cc1c(F)c(F)cc2c(CCC(=O)N[C@@H]3C(=O)NC[C@H]3O)c(-c3ccccc3)[nH]c12` [Compound 99, 3-(5,6-difluoro-7-methyl-2-phenyl-1H-indol-3-yl)-N-[(3S,4R)-4-hydroxy-2-oxo-pyrrolidin-3-yl]propanamide] cannot be ordered by IC50: less than 250 nM for the first, less than 250 nM for the second.

`O=C(CCc1c(-c2ccc(OC(F)F)cc2)[nH]c2c(F)cc(F)cc12)N[C@@H]1C(=O)NC[C@H]1O` [Compound 102] and `O=C(CCc1c(-c2ccc(F)cc2)[nH]c2c(OC(F)F)cc(F)cc12)N[C@@H]1C(=O)NC[C@H]1O` [Compound 107] cannot be ordered by IC50: less than 250 nM for the first, less than 250 nM for the second.

`O=C(CCc1c(-c2cccc(F)c2)[nH]c2c(F)cc(F)cc12)N[C@@H]1C(=O)NC[C@H]1O` [Compound 103] and `O=C(CCc1c(-c2ccc(F)c(F)c2)[nH]c2c(F)cc(F)cc12)N[C@@H]1C(=O)NC[C@H]1O` [Compound 105] cannot be ordered by IC50: less than 250 nM for the first, less than 250 nM for the second.

First: O=C(CCc1c(-c2cc(F)cc(F)c2)[nH]c2c(F)cc(F)cc12)N[C@@H]1C(=O)NC[C@H]1O [Compound 104]
Second: O=C(CCc1c(-c2cc(F)cc(F)c2)[nH]c2ccccc12)N[C@@H]1C(=O)NC[C@H]1O [Compound 127, 3-[2-(3,5-difluorophenyl)-1H-indol-3-yl]-N-[(3S,4R)-4-hydroxy-2-oxo-pyrrolidin-3-yl]propanamide]
The IC50 of the first is lower: less than 250 nM for the first, 250 to 1000 nM for the second. The first is the more potent here.

`O=C(CCc1c(-c2ccc(F)cc2)[nH]c2ccc(C(F)(F)F)cc12)N[C@@H]1C(=O)NC[C@H]1O` [Compound 108, 3-[2-(4-fluorophenyl)-5-(trifluoromethyl)-1H-indol-3-yl]-N-[(3S,4R)-4-hydroxy-2-oxo-pyrrolidin-3-yl]propanamide] and `O=C(CCc1c(-c2ccc(C(F)(F)F)cc2)[nH]c2ccccc12)N[C@@H]1C(=O)NC[C@H]1O` [Compound 123] cannot be ordered by IC50: less than 250 nM for the first, less than 250 nM for the second.

`O=C(CCc1c(-c2ccccc2)[nH]c2cc(F)ccc12)N[C@@H]1C(=O)NC[C@H]1O` [Compound 109, 3-(6-fluoro-2-phenyl-1H-indol-3-yl)-N-[(3S,4R)-4-hydroxy-2-oxo-pyrrolidin-3-yl]propanamide] and `O=C(CCc1c(-c2ccccc2)[nH]c2cccc(F)c12)N[C@@H]1C(=O)NC[C@H]1O` [Compound 114, 3-(4-fluoro-2-phenyl-1H-indol-3-yl)-N-[(3S,4R)-4-hydroxy-2-oxo-pyrrolidin-3-yl]propanamide] cannot be ordered by IC50: less than 250 nM for the first, less than 250 nM for the second.

Compared with `O=C(CCc1c(-c2ccccc2)[nH]c2c(C(F)(F)F)cccc12)N[C@@H]1C(=O)NC[C@H]1O` [Compound 112, N-[(3S,4R)-4-hydroxy-2-oxo-pyrrolidin-3-yl]-3-[2-phenyl-7-(trifluoromethyl)-1H-indol-3-yl]propanamide], `O=C(CCc1c(-c2ccc(OC(F)(F)F)cc2)[nH]c2ccccc12)N[C@@H]1C(=O)NC[C@H]1O` [Compound 118] is lower in IC50: 250 to 1000 nM for the first, less than 250 nM for the second.

`N#Cc1ccc(-c2[nH]c3ccccc3c2CCC(=O)N[C@@H]2C(=O)NC[C@H]2O)cc1` [Compound 116, 3-[2-(4-cyanophenyl)-1H-indol-3-yl]-N-[(3S,4R)-4-hydroxy-2-oxo-pyrrolidin-3-yl]propanamide] and `O=C(CCc1c(-c2ccc(Cl)cc2)[nH]c2ccccc12)N[C@@H]1C(=O)NC[C@H]1O` [Compound 128, 3-[2-(4-chlorophenyl)-1H-indol-3-yl]-N-[(3S,4R)-4-hydroxy-2-oxo-pyrrolidin-3-yl]propanamide] cannot be ordered by IC50: less than 250 nM for the first, less than 250 nM for the second.

`O=C(CCc1c(-c2ccc(Cl)c(F)c2)[nH]c2ccccc12)N[C@@H]1C(=O)NC[C@H]1O` [Compound 120] and `Cc1cc(-c2[nH]c3ccccc3c2CCC(=O)N[C@@H]2C(=O)NC[C@H]2O)ccc1F` [Compound 125] cannot be ordered by IC50: less than 250 nM for the first, less than 250 nM for the second.

`COc1ccc(-c2[nH]c3ccccc3c2CCC(=O)N[C@@H]2C(=O)NC[C@H]2O)cc1` [Compound 121] and `O=C(CCc1c(-c2ccc(C(F)F)cc2)[nH]c2ccccc12)N[C@@H]1C(=O)NC[C@H]1O` [Compound 131, 3-[2-[4-(difluoromethyl)phenyl]-1H-indol-3-yl]-N-[(3S,4R)-4-hydroxy-2-oxo-pyrrolidin-3-yl]propanamide] cannot be ordered by IC50: less than 250 nM for the first, less than 250 nM for the second.

`Cc1ccc(-c2[nH]c3ccccc3c2CCC(=O)N[C@@H]2C(=O)NC[C@H]2O)c(F)c1` [Compound 122] and `Cc1ccc(-c2[nH]c3ccccc3c2CCC(=O)N[C@@H]2C(=O)NC[C@H]2O)cc1F` [Compound 126] cannot be ordered by IC50: less than 250 nM for the first, less than 250 nM for the second.

Work on `O=C(CCc1c(-c2ccc(F)c(F)c2)[nH]c2ccccc12)N[C@@H]1C(=O)NC[C@H]1O` [Compound 129, 3-[2-(3,4-difluorophenyl)-1H-indol-3-yl]-N-[(3S,4R)-4-hydroxy-2-oxo-pyrrolidin-3-yl]propanamide] yielded an IC50 of less than 250 nM.
